Source: ChEMBL document CHEMBL4330092, “Optimization of Vinyl Sulfone Derivatives as Potent Nuclear Factor Erythroid 2-Related Factor 2 (Nrf2) Activators for Parkinson's Disease Therapy” (J Med Chem, 2019)

Experiments:
[1] = Aqueous solubility of the compound; type: physicochemical; details: aqueous medium
[2] = Lipophilicity, log P of the compound; type: physicochemical; details: octanol/water
[3] = Tmax in rat at 10 mg/kg, po; type: ADME, organism-based; details: in vivo
[4] = Oral bioavailability in rat at 10 mg/kg; type: ADME, organism-based; details: in vivo
[5] = Dissociation constant, pKa of the compound; type: physicochemical

solubility [1] | logP [2] | Tmax [3] | bioavailability [4] | pKa [5] | Compound
< 0.01 mg/mL |  |  |  |  | COc1ccccc1S(=O)(=O)/C=C/c1ccccc1Cl
> 30 mg/mL | 2.29 | 24 min | 45.3% | 7.58 | Cl.O=S(=O)(/C=C/c1ncccc1F)c1ccc(OCCCN2CCOCC2)cc1
